{"source": "patent US11231421B2", "about": "“Methods of treating multifocal cancer” (NYMOX CORPORATION, priority 2019, dated 2022)", "assay_type_in_all_cases": "in vivo, human", "key": {"[1]": {"system": "low grade prostate cancer (Gleason grade 6)", "test": "Clinical study, Example 7: cancer treatment with new multifocal with increased Gleason grade in the hemi-prostate", "conditions": "for % Imp.: cancer treatment with new multifocal with increased Gleason grade in the hemi-prostate: vs control active surveillance", "protocol": "(§1) In a series of clinical studies a total of 146 men with low grade prostate cancer (Gleason grade 6) were treated in the following manner. Patients were randomized and treated with a transrectal intraprostatic single injection of a composition comprising 2.5 mg FT (n=49), or a composition comprising 15 mg FT (n=48), or were subject to control active surveillance (n=49). After the first follow-up biopsy at 45 days post-randomization, 18 patients in the control active surveillance group crossed over to a single administration of a composition in which 10 patients received 2.5 mg FT, and 8 patients received 15 mg FT. Patients were followed for 5 years including biopsies at baseline, 45 days, 18, 36, and 48 months, and urological evaluations with PSA every 6 months. Patients with Gleason grade increase or who elected surgical or radiotherapeutic intervention exited the study and were still included in the data analysis. Percentage of normal biopsies in the baseline focus quadrant and median tumor grade and volume were assessed; progression was measured by clinical and pathological outcomes including Gleason grade, and Gleason grade primary pattern, in the entire prostate sampled as well as for the treated prostate lobe. Interventions associated with Gleason grade increase as well as total incidence for any conventional surgical intervention (e.g., surgery, radiotherapy, and/or chemotherapy) was assessed. This example evaluated the percentage of patients who had conventional cancer treatment (e.g., surgery, radiotherapy, and/or chemotherapy), and who and who had multifocal prostate cancer in the lobe (or hemi-prostate) in which the foci were initially treated with Gleason upgrade (cancer treatment with new multifocal with increased Gleason grade in the hemi-prostate)."}, "[2]": {"system": "low grade prostate cancer (Gleason grade 6)", "test": "Clinical study, Example 5: cancer treatment with new multifocal with Gleason upgrade", "conditions": "for % Imp.: cancer treatment with new multifocal with Gleason upgrade, entire prostate: vs control active surveillance", "protocol": "as §1, with “assessed.” for “assessed. This example evaluated the percentage of patients who had conventional cancer treatment (e.g., surgery, radiotherapy, and/or chemotherapy), and who and who had multifocal prostate cancer in the lobe (or hemi-prostate) in which the foci were initially treated with Gleason upgrade (cancer treatment with new multifocal with increased Gleason grade in the hemi-prostate).”"}, "[3]": {"system": "low grade prostate cancer (Gleason grade 6)", "test": "Clinical study, Example 8: cancer treatment with new multifocal and an increase in Gleason grade primary pattern in the hemi-prostate", "conditions": "for % Imp.: cancer treatment with new multifocal and an increase in Gleason grade primary pattern in the hemi-prostate: vs control active surveillance", "protocol": "In a series of clinical studies a total of 146 men with low grade prostate cancer (Gleason grade 6) were treated in the following manner. Patients were randomized and treated with a transrectal intraprostatic single injection of a composition comprising 2.5 mg FT (n=49), or a composition comprising 15 mg FT (n=48), or were subject to control active surveillance (n=49). After the first follow-up biopsy at 45 days post-randomization, 18 patients in the control active surveillance group crossed over to a single administration of a composition in which 10 patients received 2.5 mg FT, and 8 patients received 15 mg FT. Patients were followed for 5 years including biopsies at baseline, 45 days, 18, 36, and 48 months, and urological evaluations with PSA every 6 months. Patients with Gleason grade increase or who elected surgical or radiotherapeutic intervention exited the study and were still included in the data analysis. Percentage of normal biopsies in the baseline focus quadrant and median tumor grade and volume were assessed; progression was measured by clinical and pathological outcomes including Gleason grade, and Gleason grade primary pattern, in the entire prostate sampled as well as for the treated prostate lobe. Interventions associated with Gleason grade increase as well as total incidence for any conventional surgical intervention (e.g., surgery, radiotherapy, and/or chemotherapy) was assessed. This example evaluated the percentage of patients having conventional cancer treatment (surgery, radiotherapy, or chemotherapy), and having multifocal prostate cancer in the lobe (or hemi-prostate) in which the foci were initially treated with Gleason primary pattern (cancer treatment with new multifocal and an increase in Gleason grade primary pattern in the hemi-prostate)."}, "[4]": {"conditions": "FT 2.5 mg, <=18 mos from treatment"}, "[5]": {"conditions": "FT 2.5 mg, <=36 mos from treatment"}, "[6]": {"conditions": "FT 2.5 mg, <=48 mos from treatment"}, "[7]": {"conditions": "FT 15 mg, <=18 mos from treatment"}, "[8]": {"conditions": "FT 15 mg, <=36 mos from treatment"}, "[9]": {"conditions": "FT 15 mg, <=48 mos from treatment"}, "[10]": {"conditions": "Pooled FT (2.5 mg and 15 mg), <=18 mos from treatment"}, "[11]": {"conditions": "Pooled FT (2.5 mg and 15 mg), <=18 mos"}, "[12]": {"conditions": "Pooled FT (2.5 mg and 15 mg), <=36 mos from treatment"}, "[13]": {"conditions": "Pooled FT (2.5 mg and 15 mg), <=36 mos"}, "[14]": {"conditions": "Pooled FT (2.5 mg and 15 mg), <=48 mos from treatment"}, "[15]": {"conditions": "Pooled FT (2.5 mg and 15 mg), <=48 mos"}}, "note": "Where no end group is shown, it is not given here."}
{"substance": "fexapotide triflutate (IDQQVLSRIKLEIKRCL; also: trifluoroacetate salt) [FT]", "values": [{"measurement": "percentage of patients: cancer treatment with new multifocal with increased Gleason grade in the hemi-prostate", "setting": "[1]; [4]", "result": 4.9, "unit": "%"}, {"measurement": "% Imp.: cancer treatment with new multifocal with increased Gleason grade in the hemi-prostate", "setting": "[1]; FT 2.5 mg, <=18 mos", "result": 69, "unit": "%"}, {"measurement": "percentage of patients: cancer treatment with new multifocal with increased Gleason grade in the hemi-prostate", "setting": "[1]; [5]", "result": 10, "unit": "%"}, {"measurement": "% Imp.: cancer treatment with new multifocal with increased Gleason grade in the hemi-prostate", "setting": "[1]; FT 2.5 mg, <=36 mos", "result": 57.4, "unit": "%"}, {"measurement": "percentage of patients: cancer treatment with new multifocal with increased Gleason grade in the hemi-prostate", "setting": "[1]; [6]", "result": 17.4, "unit": "%"}, {"measurement": "% Imp.: cancer treatment with new multifocal with increased Gleason grade in the hemi-prostate", "setting": "[1]; FT 2.5 mg, <=48 mos", "result": 44.4, "unit": "%"}, {"measurement": "percentage of patients: cancer treatment with new multifocal with increased Gleason grade in the hemi-prostate", "setting": "[1]; [7]", "result": 5.1, "unit": "%"}, {"measurement": "% Imp.: cancer treatment with new multifocal with increased Gleason grade in the hemi-prostate", "setting": "[1]; FT 15 mg, <=18 mos", "result": 67.7, "unit": "%"}, {"measurement": "percentage of patients: cancer treatment with new multifocal with increased Gleason grade in the hemi-prostate", "setting": "[1]; [8]", "result": 7.1, "unit": "%"}, {"measurement": "% Imp.: cancer treatment with new multifocal with increased Gleason grade in the hemi-prostate", "setting": "[1]; FT 15 mg, <=36 mos", "result": 69.8, "unit": "%"}, {"measurement": "percentage of patients: cancer treatment with new multifocal with increased Gleason grade in the hemi-prostate", "setting": "[1]; [9]", "result": 8.3, "unit": "%"}, {"measurement": "% Imp.: cancer treatment with new multifocal with increased Gleason grade in the hemi-prostate", "setting": "[1]; FT 15 mg, <=48 mos", "result": 73.5, "unit": "%"}, {"measurement": "percentage of patients: cancer treatment with new multifocal with increased Gleason grade in the hemi-prostate", "setting": "[1]; [10]", "result": 5, "unit": "%"}, {"measurement": "% Imp.: cancer treatment with new multifocal with increased Gleason grade in the hemi-prostate", "setting": "[1]; [11]", "result": 68.4, "unit": "%"}, {"measurement": "percentage of patients: cancer treatment with new multifocal with increased Gleason grade in the hemi-prostate", "setting": "[1]; [12]", "result": 8.6, "unit": "%"}, {"measurement": "% Imp.: cancer treatment with new multifocal with increased Gleason grade in the hemi-prostate", "setting": "[1]; [13]", "result": 63.4, "unit": "%"}, {"measurement": "percentage of patients: cancer treatment with new multifocal with increased Gleason grade in the hemi-prostate", "setting": "[1]; [14]", "result": 12.8, "unit": "%"}, {"measurement": "% Imp.: cancer treatment with new multifocal with increased Gleason grade in the hemi-prostate", "setting": "[1]; [15]", "result": 59.1, "unit": "%"}, {"measurement": "percentage of patients: cancer treatment with new multifocal with Gleason upgrade, entire prostate", "setting": "[2]; [4]", "result": 9.8, "unit": "%"}, {"measurement": "% Imp.: cancer treatment with new multifocal with Gleason upgrade, entire prostate", "setting": "[2]; FT 2.5 mg, <=18 mos", "result": 62.7, "unit": "%"}, {"measurement": "percentage of patients: cancer treatment with new multifocal with Gleason upgrade, entire prostate", "setting": "[2]; [5]", "result": 16.7, "unit": "%"}, {"measurement": "% Imp.: cancer treatment with new multifocal with Gleason upgrade, entire prostate", "setting": "[2]; FT 2.5 mg, <=36 mos", "result": 52.7, "unit": "%"}, {"measurement": "percentage of patients: cancer treatment with new multifocal with Gleason upgrade, entire prostate", "setting": "[2]; [6]", "result": 26, "unit": "%"}, {"measurement": "% Imp.: cancer treatment with new multifocal with Gleason upgrade, entire prostate", "setting": "[2]; FT 2.5 mg, <=48 mos", "result": 48, "unit": "%"}, {"measurement": "percentage of patients: cancer treatment with new multifocal with Gleason upgrade, entire prostate", "setting": "[2]; [7]", "result": "5.1 (p = 0.02) %"}, {"measurement": "% Imp.: cancer treatment with new multifocal with Gleason upgrade, entire prostate", "setting": "[2]; FT 15 mg, <=18 mos", "result": 80.6, "unit": "%"}, {"measurement": "percentage of patients: cancer treatment with new multifocal with Gleason upgrade, entire prostate", "setting": "[2]; [8]", "result": "7.1 (p = 0.17) %"}, {"measurement": "% Imp.: cancer treatment with new multifocal with Gleason upgrade, entire prostate", "setting": "[2]; FT 15 mg, <=36 mos", "result": 79.9, "unit": "%"}, {"measurement": "percentage of patients: cancer treatment with new multifocal with Gleason upgrade, entire prostate", "setting": "[2]; [9]", "result": "8.3 (p = 0.003) %"}, {"measurement": "% Imp.: cancer treatment with new multifocal with Gleason upgrade, entire prostate", "setting": "[2]; FT 15 mg, <=48 mos", "result": 83.4, "unit": "%"}, {"measurement": "percentage of patients: cancer treatment with new multifocal with Gleason upgrade, entire prostate", "setting": "[2]; [10]", "result": "7.5 (p = 0.02) %"}, {"measurement": "% Imp.: cancer treatment with new multifocal with Gleason upgrade, entire prostate", "setting": "[2]; [11]", "result": 71.5, "unit": "%"}, {"measurement": "percentage of patients: cancer treatment with new multifocal with Gleason upgrade, entire prostate", "setting": "[2]; [12]", "result": "12.1 (p = 0.026) %"}, {"measurement": "% Imp.: cancer treatment with new multifocal with Gleason upgrade, entire prostate", "setting": "[2]; [13]", "result": 65.7, "unit": "%"}, {"measurement": "percentage of patients: cancer treatment with new multifocal with Gleason upgrade, entire prostate", "setting": "[2]; [14]", "result": "17 (p = 0.009) %"}, {"measurement": "% Imp.: cancer treatment with new multifocal with Gleason upgrade, entire prostate", "setting": "[2]; [15]", "result": 66, "unit": "%"}, {"measurement": "percentage of patients: cancer treatment with new multifocal and an increase in Gleason grade primary pattern in the hemi-prostate", "setting": "[3]; [4]", "result": "0 (p = 0.025) %"}, {"measurement": "% Imp.: cancer treatment with new multifocal and an increase in Gleason grade primary pattern in the hemi-prostate", "setting": "[3]; FT 2.5 mg, <=18 mos", "result": 100, "unit": "%"}, {"measurement": "percentage of patients: cancer treatment with new multifocal and an increase in Gleason grade primary pattern in the hemi-prostate", "setting": "[3]; [5]", "result": "0 (p = 0.017) %"}, {"measurement": "% Imp.: cancer treatment with new multifocal and an increase in Gleason grade primary pattern in the hemi-prostate", "setting": "[3]; FT 2.5 mg, <=36 mos", "result": 100, "unit": "%"}, {"measurement": "percentage of patients: cancer treatment with new multifocal and an increase in Gleason grade primary pattern in the hemi-prostate", "setting": "[3]; [6]", "result": "0 (p = 0.031) %"}, {"measurement": "% Imp.: cancer treatment with new multifocal and an increase in Gleason grade primary pattern in the hemi-prostate", "setting": "[3]; FT 2.5 mg, <=48 mos", "result": 100, "unit": "%"}, {"measurement": "percentage of patients: cancer treatment with new multifocal and an increase in Gleason grade primary pattern in the hemi-prostate", "setting": "[3]; [7]", "result": 2.6, "unit": "%"}, {"measurement": "% Imp.: cancer treatment with new multifocal and an increase in Gleason grade primary pattern in the hemi-prostate", "setting": "[3]; FT 15 mg, <=18 mos", "result": 75.2, "unit": "%"}, {"measurement": "percentage of patients: cancer treatment with new multifocal and an increase in Gleason grade primary pattern in the hemi-prostate", "setting": "[3]; [8]", "result": 3.6, "unit": "%"}, {"measurement": "% Imp.: cancer treatment with new multifocal and an increase in Gleason grade primary pattern in the hemi-prostate", "setting": "[3]; FT 15 mg, <=36 mos", "result": 79.5, "unit": "%"}, {"measurement": "percentage of patients: cancer treatment with new multifocal and an increase in Gleason grade primary pattern in the hemi-prostate", "setting": "[3]; [9]", "result": 4.2, "unit": "%"}, {"measurement": "% Imp.: cancer treatment with new multifocal and an increase in Gleason grade primary pattern in the hemi-prostate", "setting": "[3]; FT 15 mg, <=48 mos", "result": 77.7, "unit": "%"}, {"measurement": "percentage of patients: cancer treatment with new multifocal and an increase in Gleason grade primary pattern in the hemi-prostate", "setting": "[3]; [10]", "result": "1.3 (p = 0.034) %"}, {"measurement": "% Imp.: cancer treatment with new multifocal and an increase in Gleason grade primary pattern in the hemi-prostate", "setting": "[3]; [11]", "result": 87.6, "unit": "%"}, {"measurement": "percentage of patients: cancer treatment with new multifocal and an increase in Gleason grade primary pattern in the hemi-prostate", "setting": "[3]; [12]", "result": "1.7 (p = 0.01) %"}, {"measurement": "% Imp.: cancer treatment with new multifocal and an increase in Gleason grade primary pattern in the hemi-prostate", "setting": "[3]; [13]", "result": 90.3, "unit": "%"}, {"measurement": "percentage of patients: cancer treatment with new multifocal and an increase in Gleason grade primary pattern in the hemi-prostate", "setting": "[3]; [14]", "result": "2.1 (p = 0.019) %"}, {"measurement": "% Imp.: cancer treatment with new multifocal and an increase in Gleason grade primary pattern in the hemi-prostate", "setting": "[3]; [15]", "result": 88.8, "unit": "%"}]}
